In paper PMC5149398 (Journal of medicinal chemistry, 2016):

Experiments:
[1] = tested on: COX-2; settings: no COX-2 method in this paper, ref Duggan et al.[42], cited from earlier work
[2] = target: T1, AKR1C3 (Homo sapiens, UniProt P42330); assay: S-tetralol oxidation assay, AKR1C3; assay type: biochemical
T1 sequence (P42330 1-323): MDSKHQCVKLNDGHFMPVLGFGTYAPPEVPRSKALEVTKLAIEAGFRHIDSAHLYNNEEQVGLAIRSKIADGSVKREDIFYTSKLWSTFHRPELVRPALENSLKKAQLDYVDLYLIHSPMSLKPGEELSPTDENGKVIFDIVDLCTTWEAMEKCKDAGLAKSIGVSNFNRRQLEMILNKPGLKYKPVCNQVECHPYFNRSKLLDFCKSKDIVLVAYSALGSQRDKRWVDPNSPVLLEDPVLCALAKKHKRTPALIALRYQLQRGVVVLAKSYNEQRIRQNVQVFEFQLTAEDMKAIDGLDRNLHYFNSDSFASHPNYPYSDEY

[3] = target: T1, AKR1C3; assay: Radiometric assay of androgen metabolism; assay type: cell-based; settings: LNCaP-AKR1C3 cells, 100 nM Δ4-AD, 30 µM compound, 48 h
[4] = tested on: PSA expression in LNCaP-AKR1C3 cells; assay: Δ4-AD induced PSA expression in LNCaP-AKR1C3 cells; assay type: cell-based; settings: 100 nM Δ4-AD, 30 µM compound, 24 h
[5] = target: T1, AKR1C3; assay: AKR1C3 catalyzed NADPH dependent reduction of [3H]-Δ4-AD; assay type: biochemical
[6] = target: T2, AKR1C2 (Homo sapiens, UniProt P52895); settings: 5α-DHT reduction, <100 µM concentrations
T2 sequence (P52895 1-323): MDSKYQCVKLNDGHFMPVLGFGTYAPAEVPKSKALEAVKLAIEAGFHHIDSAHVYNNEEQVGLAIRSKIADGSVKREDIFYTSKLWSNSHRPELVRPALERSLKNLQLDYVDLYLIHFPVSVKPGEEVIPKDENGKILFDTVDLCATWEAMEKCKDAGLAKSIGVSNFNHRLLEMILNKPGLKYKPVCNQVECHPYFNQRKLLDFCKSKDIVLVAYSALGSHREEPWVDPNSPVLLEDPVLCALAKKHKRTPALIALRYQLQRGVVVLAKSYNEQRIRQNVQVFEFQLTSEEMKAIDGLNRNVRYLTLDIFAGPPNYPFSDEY

COc1ccc2cc([C@@H](C)C(=O)O)ccc2c1 [R-naproxen (1a), reference compound]
IC50 ([1]; read-out: COX-2 IC50): > 25 µM

CSc1ccc2cc(C(C)C(=O)O)ccc2c1 (racemic) [(±)-9, 2-(6-(Methylthio)naphthalen-2-yl)propanoic Acid]
increase in the inhibitory potency for AKR1C3 over that seen with naproxen ([2]; S-tetralol oxidation): 3 fold

CC[C@@H](C(=O)O)c1ccc2cc(OC)ccc2c1 [(R)-14a, (R)-2-(6-methoxynaphthalen-2-yl)butanoic acid]
production of [3H]-testosterone glucuronide [3]: significantly inhibited
Δ4-AD induced increase in PSA expression [4]: reduced
mode of AKR1C3 inhibition ([2]; oxidation of S-tetralol): competitively inhibited
mode of AKR1C3 inhibition [5]: same mode of inhibition
COX-2 IC50 (µM) [1]: no inhibition ^a
inhibition of AKR1C2 [6]: did not display any significant inhibition

CC[C@H](C(=O)O)c1ccc2cc(OC)ccc2c1 [(S)-14b]
COX-2 IC50 (µM) [1]: no inhibition ^a

CC(C(=O)O)c1ccc2cc(S(C)(=O)=O)ccc2c1 (racemic) [(±)-11, 2-(6-(Methylsulfonyl)naphthalen-2-yl)propanoic Acid]
loss of inhibitory potency on AKR1C3 compared to 9 ([2]; S-tetralol oxidation): greater than 15 fold

CC(C(=O)O)c1ccc2cc([S+](C)[O-])ccc2c1 (racemic) [(±)-10, 2-(6-(Methylsulfinyl)naphthalen-2-yl)propanoic Acid]
loss of inhibitory potency on AKR1C3 compared to 9 ([2]; S-tetralol oxidation): greater than 15 fold
